{"source": "patent US10272080B2", "about": "“Selective dopamine D4 receptor agonists for treatment of working memory deficits” (priority 2013, dated 2019)", "key": {"dopamine D2/D3 receptors": {"system": "dopamine D2/D3 receptors", "assay": "GTPγS binding assay, D2/D3 receptor activity in frontal cortical membrane preparations after methylphenidate treatment", "assay_type": "biochemical", "conditions": "PNE or SAC mice after methylphenidate treatment, FIG. 9", "quoted_text": "D2/D3 and D4 receptor activities are also analyzed using GTPγS binding assays with frontal cortical membrane preparations from PNE and SAC mice following the methylphenidate treatment. […] Mean±SEM, n=10-11 per group."}, "SAC mice": {"system": "SAC mice", "assay": "Y-maze spontaneous alternation assay in saccharin-only (SAC) control mice", "assay_type": "in vivo, mice (C57/B6)", "description": "(§1) A prenatal nicotine exposure (PNE) mouse model to screen for drugs that alleviate the symptoms of ADHD and associated working memory deficits is developed.^13,14 In this model, adult female C57/B6 mice are exposed to nicotine (100 μg/ml nicotine and 2% saccharin in drinking water, pH 7.2) starting 4-6 weeks prior to mating with drug-naïve male mice, and throughout their pregnancies. Two groups of age- and bodyweight-matched female mice are used as controls. In the saccharin-only (SAC) control group, mice were exposed to saccharin alone (2% saccharin in drinking water, pH 7.2), and mice in the plain drinking water (WATER) control group were exposed to drinking water without any additives. On the day the mice littered, the litter size was standardized to contain 6-8 offspring (4 males and 4 females, whenever possible). Within 48 hours of birth offspring from the PNE, SAC and WATER groups were removed from their biological mothers and cross fostered to drug-naïve nursing dams. At the age of 90 days (postnatal day 90; P90), male offspring from each group were used in experimental analyses.\nOn postnatal day 90 (P90), a Y-maze assay is used to examine changes in spontaneous alternation in the PNE mouse model. […]"}, "dopamine D4 receptor": {"system": "dopamine D4 receptor", "assay": "GTPγS binding assay, D4 receptor activity in frontal cortical membrane preparations after methylphenidate treatment", "assay_type": "biochemical, mice", "conditions": "FIG. 9", "description": "Following the Y maze assay, GTPγS receptor binding assay is performed to examine the dopamine receptor signaling in mice of different groups and therefore to determine which dopamine subtypes are activated. GTPγS binding assay is used to measure agonist-induced dopamine receptor-G-protein coupling in membrane preparations obtained from specific brain regions such as the frontal cortex.^17 This assay uses pharmacological compounds that selectively activate each receptor subtype. Since compounds selective for each of the 5 dopamine receptor subtypes are not available yet, testing is limited to assaying activities of the D2/D3 and D4 receptor only. In this assay, a D2 receptor agonist LY 171555 and a selective D4R agonist PD 168077, both in 30 μM, are used to exam the activities of D2/D3 receptor and D4 receptor, respectively.\nD2/D3 and D4 receptor activities are also analyzed using GTPγS binding assays with frontal cortical membrane preparations from PNE and SAC mice following the methylphenidate treatment. Increases are found in D4 agonist-induced G-protein coupling in the frontal cortices of PNE mice following the methylphenidate treatment, compared to saline treatment (Panel A, FIG. 9). […]"}, "PNE mice": {"system": "PNE mice", "assay": "Y-maze spontaneous alternation assay in prenatal nicotine exposure (PNE) mice", "assay_type": "in vivo, mice (C57/B6)", "conditions": "for spontaneous alternations in the PNE mice, comparison of methylphenidate and PD 168077: FIG. 10, n=9-10 per group; for changes in spontaneous alternations in PNE mice (Y-maze): PNE mice only, FIG. 6, N=8-9", "description": "as §1\n(§2) On postnatal day 90 (P90), a Y-maze assay is used to examine changes in spontaneous alternation in the PNE mouse model.\nIn additional experiments, saline, selective D1 receptor agonist (A-77636), selective D2/D3 receptor agonist (LY 171555), and selective D4 receptor agonist (PD 168077) are administered to the PNE and SAC mice followed with the assay of spontaneous alternations using the Y-maze.\nMethylphenidate, the classic stimulant treatment for ADHD, is examined for its efficacy in alleviating working memory deficits in the PNE mice. It is disclosed that methylphenidate increases extracellular dopamine in the frontal cortex of mice.^1,14 In the example of the present invention, saline or a therapeutic equivalent dose of methylphenidate^18 is administered to PNE and SAC mice. The PNE and SAC mice administered saline or a therapeutic equivalent dose of methylphenidate are assayed for spontaneous alternations in the Y-maze."}, "drug naïve mice": {"system": "drug naïve mice", "assay": "Y-maze spontaneous alternation in drug naïve (WATER group) mice with pharmacological blockade of the D4 receptor", "assay_type": "in vivo, mice (C57/B6)", "conditions": "drug naïve mice given D4 antagonist L 745087, Panel B of FIG. 7", "description": "as §1, §2"}}, "data": [{"smiles": "COC(=O)C(c1ccccc1)C1CCCCN1", "note": "(stereo not shown) [methylphenidate]", "values": [{"measurement": "D2/D3 receptor coupling to G-protein in the frontal cortices", "setting": "dopamine D2/D3 receptors", "result": "does not produce significant alterations"}, {"measurement": "spontaneous alternations in the SAC control group (Y-maze)", "setting": "SAC mice; single oral 0.75 mg/kg, FIG. 8", "result": "no significant effect"}, {"measurement": "activity of D4 receptor in the prefrontal cortex (D4 agonist-induced G-protein coupling), Mean±SEM", "setting": "dopamine D4 receptor; MPH treated PNE mice, saline treated about 92.0±3.5", "result": "about 131.6±11.6"}, {"measurement": "D4 receptor activity in the SAC group", "setting": "dopamine D4 receptor; SAC mice receiving methylphenidate treatment", "result": "no significant change"}, {"measurement": "spontaneous alternations in the PNE mice, comparison of methylphenidate and PD 168077", "setting": "PNE mice", "result": "increase spontaneous alternations"}, {"measurement": "spontaneous alternation in PNE mice (Y-maze), Mean±SEM", "setting": "PNE mice; single oral 0.75 mg/kg about 30 minutes before the Y maze assay, saline about 48.0±2.2, FIG. 8", "result": "about 57.1±1.8"}, {"measurement": "difference in spontaneous alternations between methylphenidate-exposed PNE mice and saline-exposed SAC control mice", "setting": "PNE mice; single oral 0.75 mg/kg, FIG. 8", "result": "no longer a significant difference"}]}, {"smiles": "NC[C@@H]1O[C@H](C23CC4CC(CC(C4)C2)C3)Cc2c1ccc(O)c2O", "note": "[A-77636]", "values": [{"measurement": "changes in spontaneous alternations in PNE mice (Y-maze)", "setting": "PNE mice", "result": "neither the D1 nor the D2/D3 agonist produces significant changes"}]}, {"smiles": "Cc1cccc(C(=O)NCN2CCN(c3ccccc3C#N)CC2)c1", "note": "[PD 168077, N-([4-(2-cyanophenyl)piperazin-1-yl]methyl)-3-methylbenzamide]", "values": [{"measurement": "effect on L 745087 antagonist-induced decrease in spontaneous alternations", "setting": "drug naïve mice", "result": "abolishes the antagonist-induced decreases in spontaneous alternations in a dose-dependent manner"}, {"measurement": "change in spontaneous alternations in the SAC group (Y-maze)", "setting": "SAC mice; 20 mg/kg, FIG. 5", "result": "the change is not significant"}, {"measurement": "spontaneous alternations in the PNE mice, comparison of methylphenidate and PD 168077", "setting": "PNE mice", "result": "greater than that of MPH"}, {"measurement": "working memory in prenatal nicotine exposure mouse models", "setting": "PNE mice; PD 168077 about 10 mg per kilogram body weight", "result": "shows improvement in working memory"}, {"measurement": "working memory in prenatal nicotine exposure mouse models", "setting": "PNE mice; PD 168077 about 20 mg per kilogram body weight", "result": "shows greater improvement in working memory"}, {"measurement": "difference in spontaneous alternations between the PNE group and the SAC group after administration", "setting": "PNE mice; after PD 168077 administration, FIG. 5", "result": "no statistically significant difference"}, {"measurement": "spontaneous alternations in the PNE mice (Y-maze)", "setting": "PNE mice; dose from about 10 mg/kg to about 20 mg/kg, FIG. 5", "result": "produces improvement in spontaneous alternations in the PNE mice in a dose dependent manner"}]}, {"smiles": "CCCN1CCC[C@@H]2Cc3n[nH]cc3C[C@H]21", "note": "[LY 171555]", "values": [{"measurement": "changes in spontaneous alternations in PNE mice (Y-maze)", "setting": "PNE mice", "result": "neither the D1 nor the D2/D3 agonist produces significant changes"}]}]}
